Target: T1, IRAK4 protein (Mus musculus, UniProt Q8R4K2)
T1 construct: from tissue; host or cells: PBMCs from blood of C57BL/6J mice
T1 sequence (Q8R4K2 1-459): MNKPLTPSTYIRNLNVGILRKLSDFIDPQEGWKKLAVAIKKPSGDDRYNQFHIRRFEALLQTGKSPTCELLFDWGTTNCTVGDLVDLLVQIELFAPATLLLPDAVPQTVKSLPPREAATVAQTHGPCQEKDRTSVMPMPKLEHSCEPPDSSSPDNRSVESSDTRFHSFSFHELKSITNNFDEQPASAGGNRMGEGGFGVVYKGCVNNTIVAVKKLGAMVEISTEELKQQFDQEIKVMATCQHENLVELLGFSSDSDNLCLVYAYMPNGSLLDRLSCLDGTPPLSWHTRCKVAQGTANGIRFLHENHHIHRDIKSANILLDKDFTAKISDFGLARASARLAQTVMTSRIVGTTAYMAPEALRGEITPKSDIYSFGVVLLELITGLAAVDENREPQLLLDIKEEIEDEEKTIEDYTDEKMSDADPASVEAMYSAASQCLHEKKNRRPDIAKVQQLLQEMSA
Test: In vivo mouse AAV model: IRAK4 expression in PBMC immune cell types by flow cytometry
Details: chow 100 mg/kg from 15 days prior to AAV; day 14; N=6
Protocol: The same experiment design was followed with n=6 mice in each group PBS group, AAV group and AAV+IRAK4 degrader PROTAC IRAK4 degrader-1 Cat. No.: HY-129966 (MedChemExpress) that was mixed with chow at 100 mg/kg and fed to mice 15 days prior to AAV injection. […] AAV capsid used in the study had LacZ transgene. All animal experiments were conducted in accordance with the Institutional Animal Care and Use Committees at Sanofi, Framingham. Submandibular bleeds were performed weekly, and necropsy was performed three weeks post AAV injection.
PBMC isolation and surface staining. 120 ul blood was collected in K2EDTA coated tubes. The blood was mixed with DBPS at 1:1 ration and pipetted into a separate tube containing Ficoll (GE17-5442-02) to ensure no mixing of the blood and Ficoll phases. The mixture was centrifuged at 2000 RPM for 25 minutes at room temperature (9 acceleration and no braking). The buffy coat containing the peripheral blood mononuclear cells (PBMCs) was collected, transferred to a new tube, and centrifuged for five minutes at 400 RCF. PBMCs were washed three times with phosphate buffered saline (PBS) containing 1% fetal bovine serum (FBS) or fetal calf serum (FCS) and counted. The PBMC cells thus obtained were stained with different antibodies to quantify percentage of different immune cell subsets in peripheral blood.
On day 14 mice were bled and PBMCs were harvested. […]

Structure (SMILES): O=C1CCC(N2C(=O)c3cccc(NCc4cn(CCCNC(=O)c5ccc(-n6cc(NC(=O)c7coc(-c8ccnc(NCC9CC9)c8)n7)c(C(F)(F)F)n6)cc5)cn4)c3C2=O)C(=O)N1 (stereo not shown) [PROTAC IRAK4 degrader-1]
- IRAK4 protein expression in all immune cell types evaluated in PBMCs (PBMCs, T cells, B cells, monocytes): reduced significantly
